Legend:
[1] = molecular target: T1, eIF4E association with p53 mRNA (Homo sapiens, UniProt P06730); assay: RNA-ChIP assay in RKO cells; assay type: cell-based; conditions: 1.5 μM, 2 hours, versus Pen-Ctrl (FIG. 33A)
T1 construct: endogenous in cells; host or cells: RKO cells
Description: RNA-ChIP assays were performed to examine how peptides of the present invention affect eIF4E association with p53 mRNA (FIG. 33). For the experiments shown in FIG. 33A, 4 10 cm plates were seeded with 2×10^6 RKO cells the night before. The next morning 2 plates were treated with 1.5 μM Pen-Ctrl (SEQ ID NO:10) and 2 plates were treated with 1.5 μM Pen-Pep8 (SEQ ID NO:50) for 2 hours. RKO cells were harvested in 1 mL per plate polysome lysis buffer, then centrifuged at 16,000×G for 15 minutes in a microcentrifuge at 4° C. The supernatant was pooled from all aliquots and transferred to a 15 ml tube. Equilibration was performed with 50% protein A-agarose slurry in polysome lysis buffer by washing twice with 0.5 mL of polysome lysis buffer and then restoring the original volume with lysis buffer. 3×200 μL tubes of agarose. For preclearing, one aliquot of equilibrated protein A-agarose beads was added to the lysate (50 μL of 50% agarose per 1 mL lysate) and incubated with rotation at 4° C. for 1 hour. Lysate was divided into microcentrifuge tubes and centrifuged briefly for 30 seconds to collect beads. Supernatant was pooled and transferred to a new 15 mL tube. After repeating the preclearing and bead collection steps, lysate was divided into 1 mL aliquots (i.e., 2×1 mL Pen-Ctrl and 2×1 mL Pen-Pep8). […]

p-eIF4E (Ser209) = assay: Western blot for p-eIF4E (Ser209) in RKO, MCF7 and miaPaCa2 cells; assay type: cell-based
Description: For the experiments shown in FIG. 37A, RKO cells were plated at a seed density of 1×10^5 cells per well in 12-well plates the night before the addition of peptides. For PEP1 (SEQ ID NO:13) plus Ctrl (SEQ ID NO:11), Pep8 (SEQ ID NO:1), Pep8-SR (SEQ ID NO:53), and Pep8-SK (SEQ ID NO:52), 375 nM of peptide was added to […] PEP1 in 100 μL serum-free DMEM for 20 minutes before being added to the cells for 18 hours. After 18 hours, cells were harvested with 1×SDS-lysis buffer (150 μL) and then lysate was run on a 10% SDS-PAGE gel followed by Western blotting for p53, p-eIF4E (Ser209), and actin.
For the experiments shown in FIG. 37B, MCF7 cells were grown the night before in a 6-well plate seeded with 2×10^5 cells. The next day cells were treated with 2.5 μM Pen-Ctrl (SEQ ID NO:10) or Pen-Pep8 (SEQ ID NO:50) for 18 hours. The following day, the cells were lysed with 1×SDS-lysis buffer (250 μL) and lysate was run on a 10% SDS-PAGE gel. 20 μl was loaded per well followed by Western blot for p-eIF4E (Ser-209), p53, and actin.
For the experiments shown in FIG. 37C, 2×10^5 miaPaCa2 cells per well were plated the day before in a 6-well plate. The following day, the cells were treated with 2.5 μM Pen-Ctrl (SEQ ID NO:10) or Pen-Pep8 (SEP ID NO:50) for 30 minutes then treated with 6.25 ng/mL doxorubicin for 18 hours. […]

[2] = test system: MIA-PaCa-2 pancreatic cancer cells; assay: MIA-PaCa-2 cell colony formation assay (peptides); assay type: cell-based, human; conditions: miaPaCa2 cells (mutant p53); 10 μM for 20 minutes then 0.25 ng/mL doxorubicin 18 hours (FIG. 37D)
Excerpt: […] […] After colonies formed they were fixed (i.e., using 7:1 MeOH:glacial acetic acid) and stained with crystal violet.

p53 = assay: Western blot for p53 and downstream targets in MCF7 cells treated with peptides; assay type: cell-based, human; conditions: MCF7 cells
RKO cells = assay: RKO cell colony formation assay (peptides); assay type: cell-based, human; conditions: 5 μM, 3.125 ng/mL doxorubicin 48 hours (FIG. 34D)
Description: For the experiments shown in FIG. 34D, RKO cells were seeded on a 6-well plate at a seed density of 2×10^3 cells per well. The following day the cells were treated with 5 μM Pen-Ctrl, 5 μM Pen-Pep23, or 5 μM Pen-Pep8. The following day, 3.125 ng/mL doxorubicin was added to the cells for 48 hours. Subsequently, the cell media was changed every 3 days until colonies were visible. The cells were fixed and stained with crystal violet.

T1 sequence (P06730 2-217 limits assumed): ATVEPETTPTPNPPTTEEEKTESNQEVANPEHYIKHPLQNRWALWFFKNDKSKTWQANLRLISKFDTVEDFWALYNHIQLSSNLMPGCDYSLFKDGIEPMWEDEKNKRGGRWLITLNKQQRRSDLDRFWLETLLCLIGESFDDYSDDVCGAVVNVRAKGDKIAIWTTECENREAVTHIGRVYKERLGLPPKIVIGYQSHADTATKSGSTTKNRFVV

RQIKIWFQNRRMKWKKYPYAASPA [Pen-Pep8, Penetratin fused to Pep8]
eIF4E association with p53 mRNA (RNA-ChIP) [1]: increased eIF4E association with p53 mRNA | p-eIF4E (Ser-209) level (Western blot) (p-eIF4E (Ser209); MCF7 cells, 2.5 μM, 18 hours (FIG. 37B)): reduced p-eIF4E | p-eIF4E (Ser209) level (Western blot) (p-eIF4E (Ser209); miaPaCa2 cells, 2.5 μM for 30 minutes then 6.25 ng/mL doxorubicin 18 hours (FIG. 37C)): substantial decrease in p-eIF4E | colony formation, sensitization to low-dose doxorubicin [2]: sensitized to low-dose doxorubicin | p53 expression with low dose doxorubicin (Western blot) (p53; 2.5 μM for 20 minutes then 6.25 ng/mL doxorubicin 18 hours (FIG. 34B)): robust p53 expression | p53 expression (Western blot) (p53; 2.5 μM, 18 hours (FIG. 32C)): induced p53 expression | p53 protein levels (Western blot) (p53; 2.5 μM, 18 hours (FIG. 37B)): increased p53 protein levels | colony formation, sensitization to low-dose doxorubicin (RKO cells): sensitized MCF7 and RKO cells to low-dose doxorubicin

— US11505574B2, “Modulation of P53 for the treatment of cancer” (THE REGENTS OF THE UNIVERSITY OF CALIFORNIA, priority 2016, dated 2022)
